According to patent publication US20240261268A1, “METHODS OF SLOWING AN INCREASE IN BRAIN VENTRICULAR VOLUME” (VANDA PHARMACEUTICALS INC., priority 2022, published 2024):

How the values were obtained:
[1] = system: adult subjects with relapsing MS; experiment: 12-lead ECG heart rate and first-dose monitoring on Day 1; type: in vivo, human
Procedure: The incidence of treatment-emergent heart rate and rhythm (including hypotension) AESIs on Day 1 was higher in the ponesimod 20 mg arm (2.1%) than in the teriflunomide 14 mg arm (0.4%). However, the overall incidence of first dose AESI on Day 1 was low (2.1%) in ponesimod. None of these events were serious nor led to permanent discontinuation of study treatment. Discharge criteria at 4 hours post-dose were met for ca. 99% of subjects. […] ECG HR effect: nadir at 2 hours post-dose (siponimod—3-4 hours, fingolimod—around by 6 hours). Low incidence of low HR outliers (post-dose HR≤40 bpm), all 3 of them with a pre-treatment HR of <55 bpm, which is a known risk factor for post-dose bradycardia with SIP receptor modulators.
The mean heart rate reduction compared to pre-dose reached a maximum for ponesimod 20 mg at 2-hours post dose, −8.7 bpm compared to −1.7 bpm for teriflunomide 14 mg (FIG. 2).

[2] = system: adult subjects with relapsing MS; experiment: Phase III study ponesimod 20 mg vs teriflunomide 14 mg: treatment-emergent adverse events (Safety Set)
Procedure: A prospective, multicenter, randomized, double-blind, active controlled, parallel-group, phase III, superiority study was conducted.
The treatment period consisted of an up-titration period (from Day 1 to 14) and a maintenance period (Day 15 until EOT).
To reduce the first-dose effect of ponesimod, an up-titration scheme was implemented from Day 1 to Day 14: • Days 1 and 2; 2 mg. • Days 3 and 4; 3 mg. • Days 5 and 6; 4 mg. • Day 7; 5 mg. • Day 8; 6 mg. • Day 9; 7 mg. • Day 10; 8 mg. • Day 11; 9 mg. • Days 12, 13, and 14; 10 mg. • Day 15 until EOT; 20 mg.
The Safety Set (SAF) included all randomized subjects who received at least one dose of study treatment. Subjects were analyzed based on actual treatment taken, not randomized treatment.

[3] = system: adult subjects with relapsing MS; experiment: MRI-based scaled brain ventricular volume (lateral + 3rd ventricle / ICV); type: in vivo, human
Text: Efficacy variable/timepoint: The endpoint was increase in ventricular volume up to the end of study (EOS). All available data up to EOS, regardless of treatment discontinuation was included (ITT approach).
Ventricular Volume (VV) data were obtained from MRI images from patients that participated in the OPTIMUM study. Data were obtained from those patients who had MRI imagines at baseline week 60 and week 108. One pre-requisite was to select only those patients who had all images completed.
Ventricular volume was estimated from MRI images collected at baseline (BL), week 60 and week 108 for 428 subjects treated with ponesimod and 427 with teriflunomide. Lesions were identified using T2-weighted and Proton Density (PD) MRIs. Ventricles were segmented using lesion-filled T1 images using with the longitudinal stream in FreeSurfer 7. For each subject, scaled ventricular volume (V) was computed as the sum of lateral and 3rd ventricle volumes divided by the intracranial volume (ICV) and expressed as a percentage. Average V (V) and average change in V (ΔV) from baseline at weeks 60 and 108 were compared across treatment arms. Ventricular volumes were correlated with Multiple Sclerosis Functional Composite (MSFC), Paced Auditory Serial Addition Test (PASAT), Average Timed 25 Foot Walk (T25FW), Average 9-Hole Peg Test (9-HPT), Single Digit Modality Test (SDMT), FSIQ-RMS and Expanded Disability Score (EDSS).

[4] = system: adult subjects with relapsing MS; experiment: Phase III study: premature treatment discontinuation and deaths; type: in vivo
Procedure: A total of 1468 subjects were screened. Of those, 1133 subjects were randomized (567 to ponesimod 20 mg and 566 to teriflunomide 14 mg) across 162 sites in 28 countries, and 1131 subjects received at least one dose of study drug. The disposition of subjects is summarized in Table 1 and a summary of reasons (primary reason) for treatment discontinuation are shown in Table 2. Overall treatment and study discontinuation were balanced across both treatment arms. A total of 6.5% and 2.5% of the subjects discontinued due to AEs or tolerability related reasons in ponesimod 20 mg and teriflunomide 14 mg, respectively, while 1.9% and 4.3% discontinued due to efficacy related reasons. There were 2 deaths reported during the study—both on teriflunomide 14 mg.

[5] = Day 1, ponesimod N=565, teriflunomide N=566, Safety Set
[6] = ponesimod 20 mg N=565, teriflunomide 14 mg N=566, Safety Set
[7] = ponesimod 20 mg, teriflunomide 14 mg
[8] = treatment-emergent, ponesimod 20 mg N=565, teriflunomide 14 mg N=566, Safety Set
[9] = week 60 and week 108 vs baseline, ponesimod n=428, teriflunomide n=427

With `CCC/N=C1\S/C(=C\c2ccc(OC[C@H](O)CO)c(Cl)c2)C(=O)N1c1ccccc1C` [ponesimod, (R)-5-[3-chloro-4-(2,3-dihydroxy-propoxy)-benz[Z]ylidene]-2-([Z]-propylimino)-3-o-tolyl-thiazolidin-4-one] the “Mean heart rate reduction compared to pre-dose (maximum)” value ([1]; Day 1, 2 hours post dose, 12-lead ECG) was −8.7 bpm, the “2nd or higher degree AV block” value ([1]; Day 1, first dose) was “No 2nd or higher degree AV block was observed” and the “ECG HR effect: time of nadir / maximum mean heart rate reduction post-dose” value ([1]; Day 1, first dose) was 2 h. For the same molecule, the “Subjects meeting discharge criteria at 4 hours post-dose” value ([1]; Day 1, first dose) was “ca. 99%”, the “Subjects with asymptomatic post-dose HR≤40 bpm” value ([1]; Day 1, all had pre-treatment HR <55 bpm) was 3 subjects and the “Incidence of treatment-emergent heart rate and rhythm (including hypotension) AESIs on Day 1” value ([2]; Day 1, ponesimod 20 mg arm, teriflunomide 14 mg arm) was 2.1%. The “AESI effect on heart rate and rhythm (including hypotension) on Day 1: Subjects with at least one AE” value [2, 5] was 12(2.1) n (%), the “AESI heart rate and rhythm on Day 1, PT: Atrioventricular block first degree” value [2, 5] was 3(0.5) n (%) and the “AESI heart rate and rhythm on Day 1, PT: Bradycardia” value [2, 5] was 4(0.7) n (%). The “AESI heart rate and rhythm on Day 1, PT: Bundle branch block left” value [2, 5] was 1(0.2) n (%), the “AESI heart rate and rhythm on Day 1, PT: Bundle branch block right” value [2, 5] was 1(0.2) n (%) and the “AESI heart rate and rhythm on Day 1, PT: Defect conduction intraventricular” value [2, 5] was 2(0.4) n (%). For the same molecule, the “AESI heart rate and rhythm on Day 1, PT: Electrocardiogram QT prolonged” value [2, 5] was 0 n (%), the “AESI heart rate and rhythm on Day 1, PT: Presyncope” value [2, 5] was 0 n (%) and the “AESI heart rate and rhythm on Day 1, PT: Sinus arrhythmia” value [2, 5] was 1(0.2) n (%). For the same molecule, the “AESI heart rate and rhythm on Day 1, PT: Sinus bradycardia” value [2, 5] was 1(0.2) n (%), the “Treatment-emergent AESI: Infection” value ([2]; only if serious or severe, ponesimod 20 mg N=565, teriflunomide 14 mg N=566, Safety Set) was 9(1.6) n (%) and the “TEAEs leading to premature discontinuation of study drug: Subjects with at least one AE” value [2, 6] was 49(8.7) n (%). For the same molecule, the “TEAEs leading to premature discontinuation, SOC: Blood and lymphatic system disorders” value [2, 6] was 3(0.5) n (%), the “TEAEs leading to premature discontinuation, SOC: Cardiac disorders” value [2, 6] was 1(0.2) n (%) and the “TEAEs leading to premature discontinuation, SOC: Eye disorders” value [2, 6] was 5(0.9) n (%). The “TEAEs leading to premature discontinuation, SOC: Gastrointestinal disorders” value [2, 6] was 4(0.7) n (%), the “TEAEs leading to premature discontinuation, SOC: General disorders and administration site conditions” value [2, 6] was 3(0.5) n (%) and the “TEAEs leading to premature discontinuation, SOC: Hepatobiliary disorders” value [2, 6] was 3(0.5) n (%). The “TEAEs leading to premature discontinuation, SOC: Investigations” value [2, 6] was 12(2.1) n (%), the “TEAEs leading to premature discontinuation, SOC: Musculoskeletal and connective tissue disorders” value [2, 6] was 1(0.2) n (%) and the “TEAEs leading to premature discontinuation, SOC: Neoplasms benign, malignant and unspecified (incl cysts and polyps)” value [2, 6] was 1(0.2) n (%). The “TEAEs leading to premature discontinuation, SOC: Nervous system disorders” value [2, 6] was 2(0.4) n (%), the “TEAEs leading to premature discontinuation, SOC: Pregnancy, puerperium and perinatal conditions” value [2, 6] was 3(0.5) n (%) and the “TEAEs leading to premature discontinuation, SOC: Psychiatric disorders” value [2, 6] was 1(0.2) n (%). The “TEAEs leading to premature discontinuation, SOC: Reproductive system and breast disorders” value [2, 6] was 0 n (%), the “TEAEs leading to premature discontinuation, SOC: Respiratory, thoracic and mediastinal disorders” value [2, 6] was 7(1.2) n (%) and the “TEAEs leading to premature discontinuation, SOC: Skin and subcutaneous tissue disorders” value [2, 6] was 1(0.2) n (%). For the same molecule, the “TEAEs leading to premature discontinuation, SOC: Social circumstances” value [2, 6] was 2(0.4) n (%), the “TEAEs leading to premature discontinuation, SOC: Surgical and medical procedures” value [2, 6] was 0 n (%) and the “TEAEs leading to premature discontinuation, SOC: Vascular disorders” value [2, 6] was 3(0.5) n (%). The “Treatment-emergent AESI: Effect on heart rate and rhythm (including hypotension)” value [2, 6] was 29(5.1) n (%), the “Treatment-emergent AESI: Hepatobiliary disorders/Liver enzyme abnormality” value [2, 6] was 145(25.7) n (%) and the “Treatment-emergent AESI: Herpetic infection” value [2, 6] was 27(4.8) n (%). For the same molecule, the “Treatment-emergent AESI: Hypertension” value [2, 6] was 57(10.1) n (%), the “Treatment-emergent AESI: Macular edema” value [2, 6] was 6(1.1) n (%) and the “Treatment-emergent AESI: Non-skin malignancy” value [2, 6] was 1(0.2) n (%). The “Treatment-emergent AESI: Pulmonary events” value [2, 6] was 45(8.0) n (%), the “Treatment-emergent AESI: Seizure” value [2, 6] was 8(1.4) n (%) and the “Treatment-emergent AESI: Skin malignancy” value [2, 6] was 5(0.9) n (%). The “AESI category hepatobiliary disorders/liver enzyme abnormality” value [2, 7] was 25.7%, the AESI category hypertension [2, 7] was 10.1% and the “AESI category pulmonary events” value [2, 7] was 8.0%. For the same molecule, the “Proportion of subjects who experienced at least one SAE” value [2, 7] was 8.7%, the “Proportion of subjects who experienced at least one TEAE” value [2, 7] was 88.8% and the “TEAE: ALT increased” value [2, 7] was 19.5%. The “TEAE: headache” value [2, 7] was 11.5%, the “TEAE: nasopharyngitis” value [2, 7] was 19.3% and the “TEAE: upper respiratory tract infection” value [2, 7] was 10.6%. For the same molecule, the “TEAEs leading to premature treatment discontinuation” value [2, 7] was 8.7%, the “Subjects with at least one AE” value [2, 8] was 502(88.8) n (%) and the “Subjects with at least one AE leading to study drug discontinuation” value [2, 8] was 49(8.7) n (%). The “Subjects with at least one Drug-Related AE” value [2, 8] was 278(49.2) n (%), the “Subjects with at least one Fatal AE” value [2, 8] was 0 n (%) and the “Subjects with at least one Serious AE” value [2, 8] was 49(8.7) n (%). The “Subjects with at least one Severe AE” value [2, 8] was 39(6.9) n (%), the “Rate of increase in ventricular volume lower compared to teriflunomide” value ([3]; week 60) was 60% and the “Difference in ventricular volume increase, ponesimod minus teriflunomide (Δ60V^pon−Δ60V^ter)” value ([3]; week 60, p<0.001) was −0.025%. The “Average change in scaled ventricular volume from baseline (Δ60V), percentage of ICV” value ([3]; week 60, p<0.001 vs baseline, ponesimod n=428, teriflunomide n=427) was 0.026%, the “Reduction of atrophy compared to teriflunomide (FIGS. 4-6; 3rd and lateral ventricle)” value [3, 9] was “greater” and the “Ventricular enlargement compared to teriflunomide (FIG. 3)” value [3, 9] was “less”. For the same molecule, the “Rate of increase in ventricular volume lower compared to teriflunomide” value ([3]; week 108) was 45%, the “Difference in ventricular volume increase, ponesimod minus teriflunomide (Δ108V^pon−Δ108V^ter)” value ([3]; week 108, p<0.001) was 0.043% and the “Average change in scaled ventricular volume from baseline (Δ108V), percentage of ICV” value ([3]; week 108, p<0.001 vs baseline, ponesimod n=428, teriflunomide n=427) was 0.067%. For the same molecule, the “Premature discontinuation: Death” value [4, 6] was 0 n and the “Subjects discontinued due to AEs or tolerability related reasons” value [4, 7] was 6.5%.
